Data on 17 molecules can be found in patent publication US6867320B2, “Substituted phenylalkanoic acid derivatives and use thereof” (Asahi Kasei Pharma Corporation, priority 2002, dated 2005).

For assay [1], the system named is PGE2 production from IL-1β-stimulated MG-63 cells. The assay can be described thus: Suppressing action on PGE2 production from IL-1β-stimulated MG-63 cells. Format: cell-based. The following applies: Homo sapiens, IL-1β 1 ng/ml, 18 hours, read-out: PGE2 production suppression ratio. In outline: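 PGE2 in 18 h supernatants was quantified by EIA and expressed as % suppression relative to IL-1β-only and unstimulated controls. Cells were the MG-63 osteosarcoma line, plated at 2×10^4/well, given compound in 0.5% FBS EMEM, then 1 ng/ml IL-1β final.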

In assay [2] the test system is PGD2 production from IgE-stimulated RBL-2H3 cells. The assay is described as follows: Suppressing action on PGD2 production from IgE-stimulated RBL-2H3 cells. In kind it is cell-based. The following applies: Rattus norvegicus, 10 min, IgE/DNP-BSA stimulated RBL-2H3 cells, read-out: PGD2 production suppression ratio. The text has this:
(§1) 2. Suppressing Action on PGD2 and LTB4 Production from IgE-Stimulated RBL-2H3 Cells
(§2) Suppressing action on PGD2 and LTB4 production caused by IgE as an allergic stimulant was investigated by the following method. Cells of RBL-2H3, which is a rat mastocytoma cell line (purchased from ATCC), were suspended in DEMEM medium (GIBCO) containing 10% fetal bovine serum (BioFluid), inoculated to each well of 48-well culture plate at a density of 2×10^4 cells/well and cultured overnight. Then, IgE antiserum directed to dinitrophenylated BSA (henceforth DNP-BSA) was further added to each well, and the cells were cultured for 30 minutes. Then, the medium was changed to DEMEM medium containing 0.5% fetal bovine serum, a test compound was added with each well, and DNP-BSA was further added at a final concentration of 100 ng/ml as a stimulant. Ten minutes after the stimulant was added, the culture supernatant was collected, and the PGD2 concentration and LTB4 concentration in the culture supernatant were measured by using EIA kit (CAYMAN). By using a well which was not added with the stimulant as a negative control and a well which was added only with the stimulant as a positive control, suppressing ratios on mediator production were calculated from the production amounts of the mediators in the well added with the test compound using the following equation. PGD2 or LTB4 production suppression ratio=[1−(C−B)/(A−B)]×100 • A: PGD2 or LTB4 production amount of positive control • B: PGD2 or LTB4 production amount of negative control • C: PGD2 or LTB4 production amount in well added with test compound
(§3) Further, as control compounds for comparison, reference compound (1), 3-(2-cyclohexylmethyloxy-1,1′-biphenyl-5-yl)propionic acid described in WO99/19291, reference compounds (2) and (3), [2-(5,6,7,8-tetrahydro-5,5,8,8-tetramethyl-2-naphthalenyl)methyloxy-1,1′-biphenyl-5-yl]carboxylic acid [reference compound (2)] and 3-[3′-carboxy-2-(5,6,7,8-tetrahydro-5,5,8,8-tetramethyl-2naphthalenyl)methyloxy-1,1′-biphenyl-6-yl]propionic acid [reference compound (3)] described in U.S. Pat. No. 5,391,817 and Japanese Patent Unexamined Publication (Kokai) No. 7-22399, respectively, were used, and activities thereof were similarly measured.

Assay [3] concerns LTB4 production from IgE-stimulated RBL-2H3 cells. The assay can be described thus: Suppressing action on LTB4 production from IgE-stimulated RBL-2H3 cells. Format: cell-based. The following applies: Rattus norvegicus, 10 min, IgE/DNP-BSA stimulated RBL-2H3 cells, read-out: LTB4 production suppression ratio.
Source text: as §1, §2, §3

Assay [4] concerns zymosan-stimulated footpad edema. The assay can be described thus: Mouse zymosan-stimulated footpad edema reaction. In kind it is in vivo. The following applies: ICR female mice, oral 0.1 to 500 mg/kg, compared with positive control group. Here is the method:
3. Suppressing Effect on Mouse Zymosan-stimulated Footpad Edema Reaction A suppressing effect on footpad edema caused by zymosan as an inflammatory stimulant was studied by the following method. Groups of ICR female mice (6- to 7-week old) each consisting of eight mice were used for the test. A test compound was suspended or dissolved in purified water containing 0.5% methylcellulose and orally administered to the test animals at 0.1 to 500 mg/0.2 ml/kg. To the control group, purified water containing 0.5% methylcellulose was administered in a similar manner, which was not added with a test compound. One hour after the administration of the test compound, 0.02 ml of a suspension of zymosan suspended in physiological saline (Otsuka Pharmaceutical) at 1 mg/ml was subcutaneously administered to right hind leg footpad of each mouse. One and two hours after the administration of the zymosan suspension, volume of the right hind leg footpad was measured by using an apparatus for measuring a volume of mouse hind leg footpad edema (Unicom). A difference of the volume of footpad measured above and the footpad volume before the administration of the test compound measured beforehand was regarded as a volume of the edema. For the volume of the edema at 1 hour or 2 hours after the zymosan administration, a graph was prepared by indicating time in abscissa and the edema volume in ordinate, and an edema volume AUC (area under the curve) was obtained up to 2 hours by calculation using the following equation. Edema volume AUC (1·hour)=1/2×1×A+1×(A+B)/2 • A: Edema volume 1 hour after zymosan administration • B: Edema volume 2 hour after zymosan administration A suppression ratio on edema of test compound was obtained by calculation using the following equation. Edema suppression ratio (%)=[1−B/A]×100 • A: Edema volume AUC of positive control • B: Edema volume AUC of test compound administered group (2) Measurement Results

Molecules are shown by their SMILES.

Turning to `O=C(O)CCc1ccc(OCC2CCCC2)c(-c2ccc3cc(O)ccc3c2)c1` [Compound 004, 3-[4-cyclopentylmethyloxy-3-(6-hydroxynaphthalen-2-yl)phenyl]propionic acid], the inhibition at 0.4 µM in assay [1], in assay [2] and in assay [3] was at least 50% throughout. The “suppression of footpad edema caused by zymosan” value (“suppression” for short) in assay [4] was “suppressed footpad edema”.

For `O=C(O)CCc1ccc(OCC2CCCC2)c(-c2ccc3c(O)cccc3c2)c1` [Compound 010, 3-[4-cyclopentylmethyloxy-3-(5-hydroxynaphthalen-2-yl)phenyl]propionic acid], the inhibition at 0.4 µM in assay [1], in assay [2] and in assay [3] was at least 50% each time. In addition, the “suppression” value in assay [4] is recorded as “suppressed footpad edema”.

`O=C(O)CCc1ccc(OCC2CCCCC2)c(-c2ccc3ccccc3c2)c1` [Compound 066, 3-[4-cyclohexylmethyloxy-3-(naphthalen-2-yl)phenyl]propionic acid]: the inhibition at 0.4 µM in assay [1], in assay [2] and in assay [3] was at least 50% throughout. The “suppression” value in assay [4] was “suppressed footpad edema”.

For the molecule `Nc1cc(CCC(=O)O)cc(-c2ccc3ccccc3c2)c1OCC1CCCC1` [Compound 095, 3-[3-amino-4-cyclopentylmethyloxy-5-(naphthalen-2-yl)phenyl]propionic acid], the inhibition at 0.4 µM in assay [1], in assay [2] and in assay [3] was at least 50% each time. The “suppression” value in assay [4] was “suppressed footpad edema”.

Regarding `COC(=O)CCc1ccc(OCC2CCCC2)c(-c2ccc3[nH]ccc3c2)c1` [Compound 099, methyl 3-[4-cyclopentylmethyloxy-3-(1H-indol-5-yl)phenyl]propionate], the inhibition at 0.4 µM in assay [1], in assay [2] and in assay [3] was at least 50% throughout. The “suppression” value in assay [4] is given as “suppressed footpad edema”.

Consider `O=C(O)CCc1ccc(OC2CCCC2)c(-c2ccc3[nH]ccc3c2)c1` [Compound 102, 3-[4-cyclopentyloxy-3-(1H-indol-5-yl)phenyl]propionic acid], for which the inhibition at 0.4 µM in assay [1], in assay [2] and in assay [3] was at least 50% throughout. For the same molecule, the “suppression” value in assay [4] was “suppressed footpad edema”.

Take `O=C(O)CCc1ccc(OC2CCCCC2)c(-c2ccc3[nH]ccc3c2)c1` [Compound 104, 3-[4-cyclohexyloxy-3-(1H-indol-5-yl)phenyl]propionic acid]: the inhibition at 0.4 µM in assay [1], in assay [2] and in assay [3] was at least 50% in each case. Besides, the “suppression” value in assay [4] is “suppressed footpad edema”.

`Cn1ccc2cc(-c3cc(CCC(=O)O)ccc3OC3CCCCC3)ccc21` [Compound 110, 3-[4-cyclohexyloxy-3-(1-methyl-1H-indol-5-yl)phenyl]propionic acid]: the inhibition at 0.4 µM in assay [1], in assay [2] and in assay [3] was at least 50% each time. For the same molecule, the “suppression” value in assay [4] was “suppressed footpad edema”.

With `O=C(O)CCc1ccc(OCc2ccccc2F)c(-c2ccc3[nH]ccc3c2)c1` [Compound 142, 3-[4-(2-fluorophenylmethyloxy)-3-(1H-indol-5-yl)phenyl]propionic acid], the inhibition at 0.4 µM in assay [1], in assay [2] and in assay [3] was at least 50% in each case. Further, in assay [4], the “suppression” value is “suppressed footpad edema”.

For `O=C(O)CCc1ccc(OCc2ccccc2Cl)c(-c2ccc3[nH]ccc3c2)c1` [Compound 148, 3-[4-(2-chlorophenylmethyloxy)-3-(1H-indol-5-yl)phenyl]propionic acid], the inhibition at 0.4 µM in assay [1], in assay [2] and in assay [3] was at least 50% each time. Further, the “suppression” value in assay [4] was “suppressed footpad edema”.

As to `O=C(O)CCc1ccc(OCc2cccc(Cl)c2)c(-c2ccc3[nH]ccc3c2)c1` [Compound 150, 3-[4-(3-chlorophenylmethyloxy)-3-(1H-indol-5-yl)phenyl]propionic acid], the inhibition at 0.4 µM in assay [1], in assay [2] and in assay [3] was at least 50% each time. For the same molecule, in assay [4], the “suppression” value is “suppressed footpad edema”.

Consider `O=C(O)CCc1ccc(OCc2ccc(Cl)cc2)c(-c2ccc3[nH]ccc3c2)c1` [Compound 152, 3-[4-(4-chlorophenylmethyloxy)-3-(1H-indol-5-yl)phenyl]propionic acid], for which the inhibition at 0.4 µM in assay [1], in assay [2] and in assay [3] was at least 50% throughout. For the same molecule, in assay [4], the “suppression” value was “suppressed footpad edema”.

With `O=C(O)CCc1ccc(OCc2ccccc2Br)c(-c2ccc3[nH]ccc3c2)c1` [Compound 154, 3-[4-(2-bromophenylmethyloxy)-3-(1H-indol-5-yl)phenyl]propionic acid], the inhibition at 0.4 µM in assay [1], in assay [2] and in assay [3] was at least 50% throughout. For the same molecule, the “suppression” value in assay [4] is on record as “suppressed footpad edema”.

Regarding `O=C(O)CCc1ccc(OCc2ccc(-c3ccccc3)cc2)c(-c2ccc3[nH]ccc3c2)c1` [Compound 179, 3-{4-[(biphenyl-4-yl)methyloxy]-3-(1H-indol-5-yl)phenyl}propionic acid], the inhibition at 0.4 µM in assay [1], in assay [2] and in assay [3] was at least 50% in each case. The “suppression” value in assay [4] is given as “suppressed footpad edema”.

As for `CCCCOc1ccc(COc2ccc(CCC(=O)OC)cc2-c2ccc3[nH]ccc3c2)cc1` [Compound 185, methyl 3-{4-[4-(butyloxy)phenylmethyloxy]-3-(1H-indol-5-yl)-phenyl}propionate], the inhibition at 0.4 µM in assay [2] and in assay [3] was at least 50% each time. In assay [4], the “suppression” value is given as “suppressed footpad edema”.

Regarding `Cc1ccc(CCOc2ccc(CCC(=O)O)cc2-c2ccc3[nH]ccc3c2)cc1` [Compound 204, 3-{3-(1H-indol-5-yl)-4-[2-(4-methylphenyl)ethyloxy]phenyl}propionic acid], the inhibition at 0.4 µM in assay [1], in assay [2] and in assay [3] was at least 50% throughout. The “suppression” value in assay [4] was “suppressed footpad edema”.

As to `Cn1ccc2cc(-c3cc(CCC(=O)O)ccc3OCC3CCCC3)ccc21` [Compound 235, 3-[4-cyclopentylmethyloxy-3-(1-methyl-1H-indol-5-yl)phenyl]propionic acid], the inhibition at 0.4 µM in assay [1], in assay [2] and in assay [3] was at least 50% in each case. Moreover, in assay [4], the “suppression” value is “suppressed footpad edema”.
